# Results reported in US7138361B2, “Herbicidal heterocycles” (E. I. du Pont de Nemours and Company, priority 2000, dated 2006).
# Experiments:
# Type in all cases: in vivo
# [1] = tested on: velvetleaf (Abutilon theophrasti); assay: Test B preemergence
# In short: (§1)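 Post-treatment, species sat 13–15 days under greenhouse conditions before visual scoring against controls, 0 (no effect) through 100 (complete control). Application preemergence to sown seeds or postemergence at 1- to 4-leaf stage, using a non-phytotoxic solvent/surfactant formulation.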
# rice (Oryza saliva) = assay: Test B preemergence
# In short: as §1
# corn (Zea mays) = assay: Test B preemergence
# In short: as §1
# [2] = tested on: giant foxtail (Setaria faberii); assay: Test B preemergence
# In short: as §1
# [3] = tested on: pigweed (Amaranthus retroflexus); assay: Test B preemergence
# In short: as §1
# [4] = tested on: barnyardgrass (Echinochloa crus-galli); assay: Test B preemergence
# In short: as §1
# [5] = tested on: Surinam grass (Brachiaria decumbens); assay: Test B preemergence
# In short: as §1
# [6] = tested on: morning glory (Ipomoea hederacea); assay: Test B preemergence
# In short: as §1
# [7] = tested on: cocklebur (Xanthium strumarium); assay: Test B preemergence
# In short: as §1
# [8] = tested on: lambsquarters (Chenopodium album); assay: Test B preemergence
# In short: as §1
# [9] = tested on: crabgrass (Digitaria sanguinalis); assay: Test B preemergence
# In short: as §1
# Nightshade = assay: Test C preemergence; settings: visual evaluation after 12 to 14 days
# Sunflower = assay: Test C preemergence; settings: Rate 125 g/ha, scale 0 to 100, 0 no effect, 100 complete control
# soybean (Glycine max) = assay: Test C preemergence; settings: for Plant response rating (0 to 100), Soybean: visual evaluation after 12 to 14 days
# In short: (§2)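 Each compound was dissolved in a non-phytotoxic solvent system containing a surfactant and sprayed either on freshly planted seeds (preemergence) or on young plants, 2 to 18 cm high (postemergence). Ratings after 12 to 14 greenhouse days ran from 0, no effect, to 100, complete control.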
# [10] = tested on: giant foxtail (Setaria faberii); assay: Test C preemergence
# In short: as §2
# [11] = tested on: pigweed (Amaranthus retroflexus); assay: Test C preemergence; settings: for Plant response rating (0 to 100), Pigweed: visual evaluation after 12 to 14 days
# In short: as §2
# [12] = tested on: bermudagrass (Cynodon dactylon); assay: Test C preemergence; settings: for Plant response rating (0 to 100 where 0 is no effect and 100 is complete control), Bermudagrass: visual evaluation after 12 to 14 days
# In short: as §2
# [13] = tested on: Surinam grass (Brachiaria decumbens); assay: Test C preemergence; settings: for Plant response rating (0 to 100), Surinam grass: visual evaluation after 12 to 14 days
# In short: as §2
# [14] = tested on: cocklebur (Xanthium strumarium); assay: Test C preemergence; settings: for Plant response rating (0 to 100), Cocklebur: visual evaluation after 12 to 14 days
# In short: as §2
# [15] = tested on: woolly cupgrass (Eriochloa villosa); assay: Test C preemergence; settings: for Plant response rating (0 to 100), Cupgrass, Woolly: visual evaluation after 12 to 14 days
# In short: as §2
# kochia (Kochia scoparia) = assay: Test C preemergence; settings: for Plant response rating (0 to 100), Kochia: visual evaluation after 12 to 14 days
# In short: as §2
# [16] = tested on: crabgrass (Digitaria sanguinalis); assay: Test C preemergence; settings: for Plant response rating (0 to 100), Crabgrass: visual evaluation after 12 to 14 days
# In short: as §2
# [17] = Preemergence, Rate 500 g/ha, scale 0 to 100, 0 no effect, 100 complete control
# [18] = preemergence, Rate 125 g/ha, scale of 0 to 100 where 0 is no effect and 100 is complete control, 13 to 15 days
# [19] = Preemergence, Rate 500 g/ha, scale 0 to 100
# [20] = preemergence, Rate 125 g/ha, scale 0 to 100, 0 no effect, 100 complete control
# [21] = Rate 62 g/ha, scale 0 to 100, 0 no effect, 100 complete control
compound,measurement,setting,value
CC(C)(C)c1ccn(C2CCN(c3ccc(Cl)c(Br)c3)C2=O)n1 (stereo not drawn) [Compound 56],"Plant response rating, Velvetleaf",[1]; [17],0
same,"Plant response rating, Velvetleaf",[1]; [18],0
same,"Plant response rating, Rice",rice (Oryza saliva); [17],0
same,"Plant response rating, Rice",rice (Oryza saliva); [18],0
same,"Plant response rating, Corn",corn (Zea mays); [17],0
same,"Plant response rating, Corn",corn (Zea mays); [18],0
same,"Plant response rating, Foxtail, Giant",[2]; [17],90
same,"Plant response rating, Foxtail, Giant",[2]; [18],50
same,"Plant response rating, Pigweed",[3]; [17],100
same,"Plant response rating, Pigweed",[3]; [18],100
same,"Plant response rating, Barnyardgrass",[4]; [17],50
same,"Plant response rating, Barnyardgrass",[4]; [18],0
same,"Plant response rating, Surinam grass",[5]; [17],30
same,"Plant response rating, Surinam grass",[5]; [18],30
same,"Plant response rating, Morningglory",[6]; [17],0
same,"Plant response rating, Morningglory",[6]; [18],0
same,"Plant response rating, Cocklebur",[7]; [18],0
same,"Plant response rating, Lambsquarters",[8]; [17],100
same,"Plant response rating, Lambsquarters",[8]; [18],100
same,"Plant response rating, Crabgrass",[9]; [17],100
same,"Plant response rating, Crabgrass",[9]; [18],30
same,"Plant response rating (0 to 100), Nightshade",Nightshade; Rate 250 g/ha,0
same,"Plant response rating, Sunflower",Sunflower,0
same,"Plant response rating, Soybean",soybean (Glycine max); [19],0
same,"Plant response rating (0 to 100), Soybean","soybean (Glycine max); preemergence, Rate 250 g/ha",0
same,"Plant response rating, Soybean",soybean (Glycine max); [20],0
same,"Plant response rating, Foxtail, Giant",[10]; [19],90
same,"Plant response rating, Foxtail, Giant",[10]; [21],0
same,"Plant response rating, Foxtail, Giant",[10]; [20],0
same,"Plant response rating, Pigweed",[11]; [19],100
same,"Plant response rating (0 to 100), Pigweed","[11]; preemergence, Rate 250 g/ha",0
same,"Plant response rating, Pigweed",[11]; [20],90
same,"Plant response rating, Bermudagrass",[12]; [19],100
same,"Plant response rating, Bermudagrass",[12]; [21],40
same,"Plant response rating (0 to 100 where 0 is no effect and 100 is complete control), Bermudagrass","[12]; preemergence, Rate 250 g/ha",90
same,"Plant response rating, Bermudagrass",[12]; [20],50
same,"Plant response rating, Surinam grass",[13]; [19],0
same,"Plant response rating, Surinam grass",[13]; [21],0
same,"Plant response rating (0 to 100), Surinam grass","[13]; preemergence, Rate 250 g/ha",0
same,"Plant response rating, Surinam grass",[13]; [20],0
same,"Plant response rating, Cocklebur",[14]; [19],100
same,"Plant response rating, Cocklebur",[14]; [21],0
same,"Plant response rating (0 to 100), Cocklebur","[14]; preemergence, Rate 250 g/ha",0
same,"Plant response rating, Cocklebur",[14]; [20],0
same,"Plant response rating, Cupgrass, Woolly",[15]; [19],70
same,"Plant response rating, Cupgrass, Woolly",[15]; [21],0
same,"Plant response rating (0 to 100), Cupgrass, Woolly","[15]; preemergence, Rate 250 g/ha",0
same,"Plant response rating, Cupgrass, Woolly",[15]; [20],0
same,"Plant response rating, Kochia",kochia (Kochia scoparia); [19],100
same,"Plant response rating, Kochia",kochia (Kochia scoparia); [21],50
same,"Plant response rating (0 to 100), Kochia","kochia (Kochia scoparia); preemergence, Rate 250 g/ha",100
same,"Plant response rating, Kochia",kochia (Kochia scoparia); [20],70
same,"Plant response rating, Crabgrass",[16]; [19],100
same,"Plant response rating, Crabgrass",[16]; [21],30
same,"Plant response rating (0 to 100), Crabgrass","[16]; preemergence, Rate 250 g/ha",90
same,"Plant response rating, Crabgrass",[16]; [20],30
CC1(c2ccn(C3OCN(c4cccc(C(F)(F)F)c4)C3=O)n2)CC1 (stereo not drawn) [Compound 62],"Plant response rating, Velvetleaf",[1]; [17],0
same,"Plant response rating, Velvetleaf",[1]; [18],0
same,"Plant response rating, Rice",rice (Oryza saliva); [17],30
same,"Plant response rating, Rice",rice (Oryza saliva); [18],0
same,"Plant response rating, Corn",corn (Zea mays); [17],0
same,"Plant response rating, Corn",corn (Zea mays); [18],0
same,"Plant response rating, Foxtail, Giant",[2]; [17],80
same,"Plant response rating, Foxtail, Giant",[2]; [18],0
same,"Plant response rating, Pigweed",[3]; [17],100
same,"Plant response rating, Pigweed",[3]; [18],100
same,"Plant response rating, Barnyardgrass",[4]; [17],90
same,"Plant response rating, Barnyardgrass",[4]; [18],0
same,"Plant response rating, Surinam grass",[5]; [17],0
same,"Plant response rating, Surinam grass",[5]; [18],0
same,"Plant response rating, Morningglory",[6]; [17],0
same,"Plant response rating, Morningglory",[6]; [18],0
same,"Plant response rating, Cocklebur",[7]; [17],0
same,"Plant response rating, Cocklebur",[7]; [18],0
same,"Plant response rating, Lambsquarters",[8]; [17],100
same,"Plant response rating, Lambsquarters",[8]; [18],100
same,"Plant response rating, Crabgrass",[9]; [17],90
same,"Plant response rating, Crabgrass",[9]; [18],0
same,"Plant response rating (0 to 100), Nightshade",Nightshade; Rate 250 g/ha,0
same,"Plant response rating (0 to 100), Nightshade",Nightshade; Rate 500 g/ha,0
same,"Plant response rating, Sunflower",Sunflower,0
same,"Plant response rating (0 to 100), Soybean","soybean (Glycine max); preemergence, Rate 250 g/ha",0
same,"Plant response rating (0 to 100), Soybean","soybean (Glycine max); preemergence, Rate 500 g/ha",0
same,"Plant response rating, Soybean",soybean (Glycine max); [20],0
same,"Plant response rating, Foxtail, Giant",[10]; [21],0
same,"Plant response rating (0 to 100), Foxtail, Giant","[10]; preemergence, Rate 500 g/ha, visual evaluation after 12 to 14 days",100
same,"Plant response rating, Foxtail, Giant",[10]; [20],0
same,"Plant response rating (0 to 100), Pigweed","[11]; preemergence, Rate 250 g/ha",0
same,"Plant response rating (0 to 100), Pigweed","[11]; preemergence, Rate 500 g/ha",100
same,"Plant response rating, Pigweed",[11]; [20],0
same,"Plant response rating, Bermudagrass",[12]; [21],40
same,"Plant response rating (0 to 100 where 0 is no effect and 100 is complete control), Bermudagrass","[12]; preemergence, Rate 250 g/ha",100
same,"Plant response rating (0 to 100 where 0 is no effect and 100 is complete control), Bermudagrass","[12]; preemergence, Rate 500 g/ha",100
same,"Plant response rating, Bermudagrass",[12]; [20],70
same,"Plant response rating, Surinam grass",[13]; [21],0
same,"Plant response rating (0 to 100), Surinam grass","[13]; preemergence, Rate 250 g/ha",60
same,"Plant response rating (0 to 100), Surinam grass","[13]; preemergence, Rate 500 g/ha",80
same,"Plant response rating, Surinam grass",[13]; [20],30
same,"Plant response rating, Cocklebur",[14]; [21],0
same,"Plant response rating (0 to 100), Cocklebur","[14]; preemergence, Rate 250 g/ha",0
same,"Plant response rating (0 to 100), Cocklebur","[14]; preemergence, Rate 500 g/ha",0
same,"Plant response rating, Cocklebur",[14]; [20],0
same,"Plant response rating, Cupgrass, Woolly",[15]; [21],30
same,"Plant response rating (0 to 100), Cupgrass, Woolly","[15]; preemergence, Rate 250 g/ha",90
same,"Plant response rating (0 to 100), Cupgrass, Woolly","[15]; preemergence, Rate 500 g/ha",90
same,"Plant response rating, Cupgrass, Woolly",[15]; [20],50
same,"Plant response rating, Kochia",kochia (Kochia scoparia); [21],0
same,"Plant response rating (0 to 100), Kochia","kochia (Kochia scoparia); preemergence, Rate 250 g/ha",90
same,"Plant response rating (0 to 100), Kochia","kochia (Kochia scoparia); preemergence, Rate 500 g/ha",90
same,"Plant response rating, Kochia",kochia (Kochia scoparia); [20],60
same,"Plant response rating, Crabgrass",[16]; [21],0
same,"Plant response rating (0 to 100), Crabgrass","[16]; preemergence, Rate 250 g/ha",100
same,"Plant response rating (0 to 100), Crabgrass","[16]; preemergence, Rate 500 g/ha",100
same,"Plant response rating, Crabgrass",[16]; [20],90
